Measured values from patent publication US7012078B2, “2-aminopyridines containing fused ring substituents” (Pfizer Inc., priority 1997, dated 2006).
Counter-ions that a name gives are not always drawn.

Row | Structure (SMILES) | melting point
1 | COc1cc2c(cc1OC)CN(CCOc1ccc(-c3cccc(N)n3)c3ccccc13)CC2 (as salt: hydrochloride) [Example 15, 6-{4-[2-(6,7-Dimethoxy-3,4-dihydro-1H-isoquinolin-2-yl)-ethoxy]-naphthalen-1-yl}-pyridin-2-ylamine] | 130 to 150 °C
2 | CN1C2CCC1CC(Oc1ccc(-c3cccc(N)n3)c3ccccc13)C2 (stereo not drawn) (as salt: hydrochloride) | 260 to 275 °C
3 | Nc1cccc(-c2ccc(CCNCc3cccc(Cl)c3)c3ccccc23)n1 (as salt: hydrochloride) [Example 9, 6-{4-[2-(3-Chloro-benzylamino)-ethyl]-naphthalen-1-yl}-pyridin-2-ylamine] | 60 to 75 °C
4 | Nc1cccc(-c2ccc(CCNCc3ccco3)c3ccccc23)n1 (as salt: hydrochloride) [Example 10, 6-(4-{2-[(Furan-2-ylmethyl)-amino]-ethyl}-naphthalen-1-yl)-pyridin-2-ylamine] | 185 to 205 °C
5 | CN(CCOc1ccc(-c2cccc(N)n2)c2c1CCCC2)C(C)(C)C (as salt: hydrochloride) [Example 39, 6-{4-[2-(tert-Butyl-methyl-amino)-ethoxy]-5,6,7,8-tetrahydro-naphthalen-1-yl}-pyridin-2-ylamine] | 65 to 90 °C
6 | CN(C)CCCCOc1ccc(-c2cccc(N)n2)c2ccccc12 (as salt: hydrochloride) [Example 26, 6-[4-(4-Dimethylamino-butoxy)-naphthalen-1-yl]-pyridin-2-ylamine] | 78 to 90 °C
7 | Nc1cccc(-c2ccc(OC3CN(Cc4cccnc4)C3)c3ccccc23)n1 (as salt: hydrochloride) [Example 72, 6-[4-(1-Pyridin-3-ylmethyl-azetidin-3-yloxy)-naphthalen-1-yl]-pyridin-2-ylamine] | 150 to 180 °C
8 | Nc1cccc(-c2ccc(OCC3CCCNC3)c3ccccc23)n1 (stereo not drawn) (as salt: hydrochloride) [Example 64, 6-[4-(Piperidin-3-ylmethoxy)-naphthalen-1-yl]-pyridin-2-ylamine] | 164 to 185 °C
9 | Nc1cccc(-c2ccc(OCC3CCN3)c3ccccc23)n1 (stereo not drawn) (as salt: salt) [Example 71, 6-[4-(Azetidin-2-ylmethoxy)-naphthalen-1-yl]-pyridin-2-ylamine] | 135 to 150 °C
10 | Nc1cccc(-c2ccc(OCCN3CC4C(N)C4C3)c3ccccc23)n1 (stereo not drawn) (as salt: hydrochloride) [Example 16, 3-{2-[4-(6-Amino-pyridin-2-yl)-naphthalen-1-yloxy]-ethyl}-3-aza-bicyclo[3.1.0]hex-6-ylamine] | 140 to 155 °C
11 | Nc1cccc(-c2ccc(OC3CCN(Cc4ccccc4)CC3)c3ccccc23)n1 (as salt: hydrochloride) [Example 24, 6-[4-(1-Benzyl-piperidin-4-yloxy)-naphthalen-1-yl]-pyridin-2-ylamine] | 265 to 285 °C (dec.)
12 | CC(C)CN1CCC(Oc2ccc(-c3cccc(N)n3)c3ccccc23)CC1 (as salt: hydrochloride) [Example 29, 6-[4-(1-Isobutyl-piperidin-4-yloxy)-naphthalen-1-yl]-pyridin-2-ylamine] | 198 to 210 °C
13 | Nc1cccc(-c2ccc(CCNCc3ccc(F)c(F)c3)c3ccccc23)n1 (as salt: hydrochloride) [Example 7, 6-{4-[2-(3,4-Difluoro-benzylamino)-ethyl]-naphthalen-1-yl}-pyridin-2-ylamine] | 70 to 80 °C
14 | CC(C)CN1CCN(CCOc2ccc(-c3cccc(N)n3)c3c2CCC3)CC1 (as salt: hydrochloride) [Example 62, 6-[7-[(4-Isobutylpiperazin-1-yl)-ethoxy]-indan-4-yl]-pyridin-2-ylamine] | 170 to 190 °C
15 | Nc1cccc(-c2ccc(CCN3CC4C(N)C4C3)c3ccccc23)n1 (stereo not drawn) (as salt: hydrochloride) [Example 2, 3-{2-[4-(6-Amino-pyridin-2-yl)-naphthalen-1-yl]-ethyl}-3-aza-bicyclo[3.1.0]hex-6-ylamine] | 250 to 260 °C
16 | Nc1cccc(-c2ccc(OC3CCN(Cc4ccccc4)C3)c3ccccc23)n1 (stereo not drawn) (as salt: hydrochloride) [Example 25, 6-[4-(1-Benzyl-pyrrolidin-3-yloxy)-naphthalen-1-yl]-pyridin-2-ylamine] | 160 to 170 °C
17 | Nc1cccc(-c2ccc(OC3CCN(Cc4ccco4)CC3)c3ccccc23)n1 (as salt: hydrochloride) [Example 30, 6-[4-(1-Furan-2-ylmethyl-piperidin-4-yloxy)-naphthalen-1-yl]-pyridin-2-ylamine] | 178 to 195 °C
18 | Nc1cccc(-c2ccc(OC3CCNCC3)c3ccccc23)n1 (as salt: hydrochloride) [Example 27, 6-[4-(Piperidin-4-yloxy)-naphthalen-1-yl]-Pyridin-2-ylamine] | 65 to 75 °C
19 | COc1cc(CNCCc2ccc(-c3cccc(N)n3)c3ccccc23)cc(OC)c1OC (as salt: hydrochloride) [Example 8, 6-{4-[2-(3,4,5-Trimethoxy-benzylamino)-ethyl]-naphthalen-1-yl}-pyridin-2-ylamine] | 75 to 95 °C
20 | CN1CCC(Oc2ccc(-c3cccc(N)n3)c3ccccc23)CC1 (as salt: hydrochloride) [Example 33, 6-[4-(1-Methyl-piperidin-4-yloxy)-naphthalen-1-yl]-pyridin-2-ylamine] | 179 to 187 °C
21 | Nc1cccc(-c2ccc(OCCN3CCC(N)C3)c3ccccc23)n1 (stereo not drawn) (as salt: hydrochloride) [Example 18, 6-{4-[2-(3-Amino-pyrrolidin-1-yl)-ethoxy]-naphthalen-1-yl}-pyridin-2-ylamine] | 70 to 90 °C
22 | Nc1cccc(-c2ccc(OCCN3CCN(CCc4ccccc4)CC3)c3c2CCC3)n1 (as salt: hydrochloride) [Example 61, 6-[7-[(4-Phenethylpiperazin-1-yl)-ethoxy]-indan-4-yl]-pyridin-2-ylamine] | 105 to 130 °C
23 | COc1cc2c(cc1OC)CN(CCc1ccc(-c3cccc(N)n3)c3ccccc13)CC2 [Example 4, 6-{4-[2-(6,7-Dimethoxy-3,4-dihydro-1H-isoquinolin-2-yl)-ethyl]-naphthalen-1-yl}-pyridin-2-ylamine] | 172 to 176 °C
24 | Nc1cccc(-c2ccc(CCNCc3ccc4c(c3)OCO4)c3ccccc23)n1 (as salt: hydrochloride) [Example 6, 6-(4-{2-[(Benzo[1,3]dioxol-5-ylmethyl)-amino]-ethyl}-naphthalen-1-yl)-pyridin-2-ylamine] | 80 to 110 °C
25 | Nc1cccc(-c2ccc(OCC3CNC3)c3ccccc23)n1 (as salt: hydrochloride) [Example 73, 6-[4-(Azetidin-3-ylmethoxy)-naphthalen-1-yl]-pyridin-2-ylamine] | 88 to 110 °C
26 | COc1ccc2[nH]c3c(c2c1)CCN(CCc1ccc(-c2cccc(N)n2)c2ccccc12)C3 | 132 to 138 °C
27 | Nc1cccc(-c2ccc(CCN3CCC(C(c4ccccc4)c4ccccc4)CC3)c3ccccc23)n1 (as salt: hydrochloride) [Example 3, 6-{4-[2-(4-Benzhydryl-piperidin-1-yl)-ethyl]-naphthalen-1-yl}-pyridin-2-ylamine] | 225 to 235 °C
